pIC50: −log10 of the molar value.
How the values were obtained:
Type in all cases: cell-based
Details in all cases: 72 h; human CD4+ T cells under TH17-polarizing conditions, 3 days, supernatant ELISA
IL-17A = assay: Human TH17 Cytokine Inhibition as measured by ELISA (IL-17A)
Method: (§1) Peripheral blood mononuclear cells (PBMCs) were sourced from freshly prepared leukocyte enriched plasma (buffy coat) from healthy donors (New York Blood Center). PBMCs were isolated by density gradient centrifugation using Ficoll-Paque™ PLUS (GE Healthcare). Human CD4+ T cells were seeded into 96-well plates (5×10^4 cells/well) and activated with plate-bound anti-human (h)-CD3 antibody and soluble h-aCD28 (both at 1 ug/ml; eBioscience) and differentiated into TH17 cells with 20 ng/mL h-IL-6, 5 ng/mL h-TGF-β1, 10 ng/mL h-IL-23 (eBioscience) and 10 ng/mL IL-1β (Miltenyi Biotec) in serum-free TexMACS Medium (Miltenyi Biotec) supplemented with 1% Penicillin/Streptomycin (Lonza) for 3 days. CD4+ T cells propagated under TH17-polarizing conditions were cultured in the presence or absence of various concentrations of compounds with a final concentration of 0.1% DMSO. Supernatants were collected and stored at −20° C. until assayed for IL-17A, IL-17F and IL-21 levels by “Ready-Set-Go” ELISA kits (eBioscience) as per manufacturer's instructions. Endpoint absorbance was read at 450 nm using a microplate reader (Perkin Elmer).

IL-17F = assay: Human TH17 Cytokine Inhibition as measured by ELISA (IL-17F)
Method: as §1

IL-21 = assay: Human TH17 Cytokine Inhibition as measured by ELISA (IL-21)
Method: as §1

pIC50 (IL-17A)	pIC50 (IL-17F)	pIC50 (IL-21)	SMILES
> 5.00	> 5.00	< 5.00	CC(C)C(=O)N1CCCC(Cn2ccc3cc(-c4cn[nH]c4)ccc32)CC1 (stereo not drawn) [Example 60, 1-(4-((5-(1H-pyrazol-4-yl)-1H-indol-1-yl)methyl)azepan-1-yl)-2-methylpropan-1-one]
> 5.00	> 5.00	< 5.00	O=C(OCc1ccccc1)N1CCC(CN2CCc3cc(-c4cn[nH]c4)ccc32)C1 (stereo not drawn) [Example 62, benzyl 3-((5-(1H-pyrazol-4-yl)indolin-1-yl)methyl)pyrrolidine-1-carboxylate]
> 5.00	> 5.00	> 5.00	O=C(NCc1ccccc1)N1CCC(CN2CCc3cc(-c4cn[nH]c4)ccc32)C1 (stereo not drawn) [Example 65, 3-((5-(1H-pyrazol-4-yl)indolin-1-yl)methyl)-N-benzylpyrrolidine-1-carboxamide]
> 5.00	> 5.00	> 5.00	CC(C)CNC(=O)N1CCC(CN2CCc3cc(-c4cn[nH]c4)ccc32)C1 (stereo not drawn) [Example 67, 3-((5-(1H-pyrazol-4-yl)indolin-1-yl)methyl)-N-isobutylpyrrolidine-1-carboxamide]
> 5.00	> 5.00	> 5.00	CC(C)COC(=O)N1CCC(CN2CCc3cc(-c4cn[nH]c4)ccc32)C1 (stereo not drawn) [Example 69, isobutyl 3-((5-(1H-pyrazol-4-yl)indolin-1-yl)methyl)pyrrolidine-1-carboxylate]
> 5.00	> 5.00	> 5.00	O=C(OCc1ccccc1)N1CCC(CN2CCc3cc(-c4cn[nH]c4)ccc32)CC1 [Example 70, benzyl 4-((5-(1H-pyrazol-4-yl)indolin-1-yl)methyl)piperidine-1-carboxylate]
< 5.00	< 5.00	< 5.00	CC(O)CC(=O)N1CCC(CN2CCc3cc(-c4cn[nH]c4)ccc32)CC1 (stereo not drawn) [Example 72, 1-(4-((5-(1H-pyrazol-4-yl)indolin-1-yl)methyl)piperidin-1-yl)-3-hydroxybutan-1-one]
> 5.00	< 5.00	< 5.00	CC(C)CNC(=O)N1CCC(CN2CCc3cc(-c4cn[nH]c4)ccc32)CC1 [Example 74C, 4-((5-(1H-pyrazol-4-yl)indolin-1-yl)methyl)-N-isobutylpiperidine-1-carboxamide]
> 5.00	> 5.00	> 5.00	CC(C)CNC(=O)N1CCC(CN2CCc3cc(-c4cnn(C(=O)NCC(C)C)c4)ccc32)CC1 [Example 74D, N-isobutyl-4-((5-(1-(isobutylcarbamoyl)-1H-pyrazol-4-yl)indolin-1-yl)methyl)piperidine-1-carboxamide]
> 5.00	> 5.00	> 5.00	O=C(NCc1ccccc1)N1CCC(CN2CCc3cc(-c4cn[nH]c4)ccc32)CC1 [Example 76, 4-((5-(1H-pyrazol-4-yl)indolin-1-yl)methyl)-N-benzylpiperidine-1-carboxamide]
> 5.00	> 5.00	> 5.00	O=C(CCc1ccccc1)N1CCC(Cn2ccc3cc(-c4cn[nH]c4)ccc32)CC1 [Example 79, 1-(4-((5-(1H-pyrazol-4-yl)-1H-indol-1-yl)methyl)piperidin-1-yl)-3-phenylpropan-1-one]
> 5.00	> 5.00	> 5.00	O=C(Cc1ccccc1)N1CCC(Cn2ccc3cc(-c4cn[nH]c4)ccc32)CC1 [Example 88, 1-(4-((5-(1H-pyrazol-4-yl)-1H-indol-1-yl)methyl)piperidin-1-yl)-2-phenylethanone]
> 5.00	> 5.00	> 5.00	O=C(CCCc1ccccc1)N1CCC(Cn2ccc3cc(-c4cn[nH]c4)ccc32)CC1 [Example 89, 1-(4-((5-(1H-pyrazol-4-yl)-1H-indol-1-yl)methyl)piperidin-1-yl)-4-phenylbutan-1-one]
< 5.00	> 5.00	> 5.00	O=C(CCc1cnccn1)N1CCC(Cn2ccc3cc(-c4cn[nH]c4)ccc32)CC1 [Example 90, 1-(4-((5-(1H-pyrazol-4-yl)-1H-indol-1-yl)methyl)piperidin-1-yl)-3-(pyrazin-2-yl)propan-1-one]
> 5.00	> 5.00	> 5.00	O=C(CCc1ccccn1)N1CCC(Cn2ccc3cc(-c4cn[nH]c4)ccc32)CC1 [Example 91, 1-(4-((5-(1H-pyrazol-4-yl)-1H-indol-1-yl)methyl)piperidin-1-yl)-3-(pyridin-2-yl)propan-1-one]
> 5.00	> 5.00	> 5.00	O=C(COc1ccccc1)N1CCC(Cn2ccc3cc(-c4cn[nH]c4)ccc32)CC1 [Example 92, 1-(4-((5-(1H-pyrazol-4-yl)-1H-indol-1-yl)methyl)piperidin-1-yl)-2-phenoxyethanone]

pIC50 (IL-17A)	pIC50 (IL-17F)	pIC50 (IL-21)	SMILES
> 5.00	> 5.00	> 5.00	O=C(CCc1ccc(F)cc1)N1CCC(Cn2ccc3cc(-c4cn[nH]c4)ccc32)CC1 [Example 93, 1-(4-((5-(1H-pyrazol-4-yl)-1H-indol-1-yl)methyl)piperidin-1-yl)-3-(4-fluorophenyl)propan-1-one]
> 5.00	> 5.00	> 5.00	O=C(CCc1cccc(F)c1)N1CCC(Cn2ccc3cc(-c4cn[nH]c4)ccc32)CC1 [Example 94, 1-(4-((5-(1H-pyrazol-4-yl)-1H-indol-1-yl)methyl)piperidin-1-yl)-3-(3-fluorophenyl)propan-1-one]
> 5.00	> 5.00	> 5.00	O=C(CCc1ccccc1F)N1CCC(Cn2ccc3cc(-c4cn[nH]c4)ccc32)CC1 [Example 95, 1-(4-((5-(1H-pyrazol-4-yl)-1H-indol-1-yl)methyl)piperidin-1-yl)-3-(2-fluorophenyl)propan-1-one]
> 5.00	> 5.00	> 5.00	O=C(CCc1ccccc1)N1CCC(CN2CCCc3cc(-c4cn[nH]c4)ccc32)CC1 [Example 98, 1-(4-((6-(1H-pyrazol-4-yl)-3,4-dihydroquinolin-1(2H)-yl)methyl)piperidin-1-yl)-3-phenylpropan-1-one]
> 5.00	> 5.00	< 5.00	O=C(CC1CCCCC1)N1CCC(CN2CCCc3cc(-c4cn[nH]c4)ccc32)CC1 [Example 99, 1-(4-((6-(1H-pyrazol-4-yl)-3,4-dihydroquinolin-1(2H)-yl)methyl)piperidin-1-yl)-2-cyclohexylethanone]
> 5.00	> 5.00	< 5.00	O=C(Cc1ccccc1)N1CCC(CN2CCCc3cc(-c4cn[nH]c4)ccc32)CC1 [Example 102, 1-(4-((6-(1H-pyrazol-4-yl)-3,4-dihydroquinolin-1(2H)-yl)methyl)piperidin-1-yl)-2-phenylethanone]
> 5.00	> 5.00	< 5.00	O=C(CCCc1ccccc1)N1CCC(CN2CCCc3cc(-c4cn[nH]c4)ccc32)CC1 [Example 103, 1-(4-((6-(1H-pyrazol-4-yl)-3,4-dihydroquinolin-1(2H)-yl)methyl)piperidin-1-yl)-4-phenylbutan-1-one]
> 5.00	> 5.00	> 5.00	CC1(C)CC(Cn2ccc3cc(-c4cn[nH]c4)ccc32)CN1C(=O)c1ccccc1 (stereo not drawn) [Example 108, (4-((5-(1H-pyrazol-4-yl)-1H-indol-1-yl)methyl)-2,2-dimethylpyrrolidin-1-yl)(phenyl)methanone]
> 5.00	> 5.00	> 5.00	CC1(C)CC(Cn2ccc3cc(-c4cn[nH]c4)ccc32)CN1C(=O)Cc1ccccc1 (stereo not drawn) [Example 109]
> 5.00	> 5.00	> 5.00	CC1(C)CC(Cn2ccc3cc(-c4cn[nH]c4)ccc32)CN1C(=O)CCc1ccccc1 (stereo not drawn) [Example 110]
> 5.00	> 5.00	> 5.00	CC1(C)CC(Cn2ccc3cc(-c4cn[nH]c4)ccc32)CN1C(=O)CC1CCCCC1 (stereo not drawn) [Example 111]
> 5.00	> 5.00	> 5.00	O=C(CCc1ccccc1)N1CCC(Cn2ccc3cc(-c4c[nH]nn4)ccc32)CC1 [Example 112, 1-(4-((5-(1H-1,2,3-triazol-4-yl)-1H-indol-1-yl)methyl)piperidin-1-yl)-3-phenylpropan-1-one]
> 5.00	> 5.00	> 5.00	Cn1cc(-c2ccc3c(ccn3CC3CCN(C(=O)CCc4ccccc4)CC3)c2)nn1 [Example 113, 1-(4-((5-(1-methyl-1H-1,2,3-triazol-4-yl)-1H-indol-1-yl)methyl)piperidin-1-yl)-3-phenylpropan-1-one]
> 5.00	> 5.00	> 5.00	Cc1[nH]ncc1-c1ccc2c(ccn2CC2CCN(C(=O)CCc3ccccc3)CC2)c1 [Example 115, 1-(4-((5-(5-methyl-1H-pyrazol-4-yl)-1H-indol-1-yl)methyl)piperidin-1-yl)-3-phenylpropan-1-one]
> 5.00	> 5.00	> 5.00	O=C(CCc1ccccc1)N1CCC(Cn2ccc3cc(-c4cn[nH]c4C(F)(F)F)ccc32)CC1 [Example 117, 3-phenyl-1-(4-((5-(5-(trifluoromethyl)-1H-pyrazol-4-yl)-1H-indol-1-yl)methyl)piperidin-1-yl)propan-1-one]

Source: patent publication US20150252022A1, “RETINOIC ACID RECEPTOR-RELATED ORPHAN RECEPTOR MODULATORS AND USES THEREOF” (INNOV17 LLC, priority 2014, published 2015)
